The values below come from patent US20190002492A1, “DERIVATIVES OF ALLOPR[…] OF EPIALLOPR[…] USES THEREOF FOR TREATING A NEUROPATHOLOGICAL CONDITION” (UNIVERSITE DE STRASBOURG, priority 2011, published 2019).

Molecules are shown by their SMILES.

Assay [1] has as its system SH-SY5Y human neuroblastomas. In words: MTT assay of cell viability and density: effect on cell proliferation. Format: cell-based. The settings on record: SH-SY5Y cultures. Further details: key to Effect on cell proliferation (neural proliferative effect): −: no effect; +: low effect; ++: high effect; +++: very high effect. As for the experimental part:
(§1) The cellular model used to carry out the in vitro experiments is a line of human neuroblastomas called line SH-SY5Y.
(§2) The human neuroblastoma is a cultivated at 37° C. in a humidity saturated atmosphere, under 5% CO2 in a culture medium formed by DMEM with an added 10% (v/v) fetal calf serum, 5% (v/v) horse serum, 2 mM glutamax and 1% (v/v) of the penicillin/streptomycin mixture.
The cellular viability and the density (or number of SH-SY5Y cells/cm^2) were determined using the MTT reduction assay. The MTT technique is a colorimetric test that measures the reduction of the tetrazolium salt (3-[4,5-dimethylthiazol-2-yl]-2,5-diphenyl tetrazolium bromide) in formazan by the succinate dehydrogenase present in the mitochondria of the living cells. The formazan forms blue crystals. Thus, after solubilization of the crystals, the measurement of the absorbance at 595 nm makes it possible to obtain absorbency values directly proportional to the number of viable cells and the cell density in the culture boxes.
The effects of derivatives BR053, BR338, BR297 and BR351 on cell proliferation were evaluated by comparing the number of viable cells and the cell density in the control culture boxes, treated only with the culture medium described in paragraph A1 above, and the culture boxes exposed to the culture medium with the added BR053, BR338, BR297 or BR351 derivatives.

In assay [2] the test system is SH-SY5Y human neuroblastomas. Description: Neuroprotection against cell death caused by oxidizing stress (H2O2), MTT readout. Further details: key to Neuroprotective effect against cell death caused by oxidizing stress: −: no effect; +: low effect; ++: high effect; +++: very high effect. Format: cell-based. The settings on record: H2O2 1 mM; for Neuroprotective effect against cell death caused by oxidizing stress: SH-SY5Y cultures, 24 or 48 hours, MTT; for Protection of human neuroblastomas from cell death caused by H2O2 (in words): SH-SY5Y. The method, then:
as §1, §2
The human neuroblastomas were incubated with the culture medium alone or containing the chief inducing agent of oxidizing stress, hydrogen peroxide (H2O2), at various concentrations in order to determine the concentrations of H2O2 and the incubation times causing the death of a significant percentage of the cells. The neuroprotective properties of the BR053, BR338, BR297 and BR351 derivatives were determined by pretreating the SH-SY5Y cells with the culture medium alone or respectively containing the BR053, BR338, BR297 or BR351 derivative. After pretreatment, each of these categories of cells was integrated for 24 hours or 48 hours with the following solutions: (i) culture medium; (ii) culture medium containing only the BR053, BR338, BR297 or BR351 derivative; (iii) culture medium containing only H2O2 at a concentration of 1 mM, which causes a high percentage of cell death; (iv) culture medium containing both H2O2 (1 mM) and one of the BR053, BR338, BR297 or BR351 derivatives.
10 μl of a stock solution of tetrazolium, abbreviated MTT, at 3.6 mM was added in each well and the incubation continued in darkness for 5 h at 37° C. After cell lysis, spectrophotometer measurements at 595 nm were carried out to determine the survival and cell density under each of the conditions described above.

The test system of assay [3] is Sprague-Dawley rats. Description: Von Frey filament test, painful neuropathy caused by vincristine. Format: in vivo, rat. The conditions noted are these: rats with vincristine neuropathy, 4 mg/kg i.p. every 2 days for 2 weeks. The source says:
(§3) Adult male Sprague-Dawley rats weighing between 250 and 300 g were used. They came from the company Janvier (le Genest St. Isle, France). The care and handling of the animals were done in accordance with the guidelines from the Council of the European Community (86/609/EC) and in accordance with the ethical rules of the International Association for the Study of Pain. The protocol used to carry out the in vivo studies was subject to examination and authorization granted to Prof. Mensah-Nyagan's team by the Alsatian Department of the Veterinary Public Health Guide for the Care and Use of Laboratory Animals (Approval number 67-186). The rats were housed under standard conditions with a photoperiod of 12 h day/12 h night, with unlimited food and water. The animals spent one acclimatization week before being integrated into the experimental protocols. Each animal was examined daily to detect any signs of deterioration of its health condition, such as dramatic weight loss, a decrease in appetite during chemotherapy and pharmacological treatment.
(§4) Vincristine sulfate (VINC), purchased from Sigma-Aldrich (St. Louis, Mo., USA), was dissolved in a physiological saline solution (NaCl 0.9%) at 0.1 mg/ml and stored at 4° C. The saline solution (NaCl 0.9%) is used as excipient. The VINC is injected daily by intraperitoneal injection (i.p.), in 2 cycles of 5 days separated by 2 days off, at a concentration of 0.1 mg/kg/day. The control animals were injected by i.p. (1 ml/kg) with the excipient using a similar protocol.
(§5) The allopregnanolone in the derivatives according to the invention (BR053 and BR297) were diluted in a hydroxypropylcellulose (HPC) solution (0.3%) used as excipient. The curative treatment with allopregnanolone, BR053 or BR297 began 3 days after the vincristine cycles. Each of these compounds (allopregnanolone, BR053 or BR297) was administered by the intraperitoneal route at a dose of 4 mg/kg at a rate of one injection every 2 days. Thus, over the total duration of the in vivo experiments (14 days), each animal received 7 injections of excipient, allopregnanolone, BR053 or BR297, based on its group, at a dose of 4 mg/kg. The animals were sacrificed 24 hours after the last behavioral test (28th day) to remove tissues that will be used for later histology and electrophysiology studies.
(§6) The mechanical nociceptive sensitivity threshold was evaluated in rats placed in individual Plexiglas boxes (30×30×25 cm) mounted on a raised mesh support thereby allowing access to the surface or arch of the back feet. The presence of allodynia (exaggerated response following a normally […] stimulation) was measured using a series of calibrated von Frey filaments (1, 2, 4, 6, 8, 10, 15, 26, 100, 180 and 300 g; Stoelting, Wood Dale, Ill., USA), which were applied on the sole of the back foot of the animal with increasing force until the filament twisted. The filament was applied for a period of 1 to 2 seconds and the procedure was repeated 5 times at 4-5 second intervals. The withdrawal threshold of the foot was calculated by taking the average of […] repeated stimuli (in grams) that caused a reflex to withdraw the foot. Only vigorous and fast withdrawals of the foot were considered positive. In the experiments, the naïve animals never responded to the 4 g filament and responded 25-30% of the time to the 15 g filament.

Assay [4] relates to Sprague-Dawley rats. Description: Acetone test of thermal allodynia to cold, painful neuropathy caused by vincristine. Format: in vivo, rat. The settings on record: rats with vincristine neuropathy, 4 mg/kg i.p. every 2 days for 2 weeks.
Text: as §3, §4, §5
The thermal nociceptive sensitivity threshold to cold was measured in rats placed in individual Plexiglas boxes (30×30×25 cm) mounted on a raised mesh support so as to allow access to the sole of the animal's foot. […] Six measurements (3 per foot) were performed with a latency of 5 minutes between each stimulation. The average latency for withdrawal of the feet (in seconds) was calculated by averaging 6 measurements at each studied point in time. […]

In assay [5] the test system is Sprague-Dawley rats. Description: Von Frey mechanical nociceptive sensitivity threshold in healthy animals not treated with vincristine. Format: in vivo, rat. The settings on record: 4 mg/kg every 2 days for 2 weeks.
Text: as §3, §5
as §6, with “In the experiments, the naïve animals never responded to the 4 g filament and responded 25-30% of the time to the 15 g filament.” left out

Regarding `CC(=O)[C@H]1CCC2C3CC[C@H]4C[C@@H](O)CC[C@]4(C)C3CC(=O)[C@@]21C` (some centres unmarked) [BR053], in assay [1], the “Effect on cell proliferation (neural proliferative effect)” value is on record as “+” and the “Effect on the proliferation of human neuroblastomas (in words)” value was “low effectiveness”. In assay [2], the “Neuroprotective effect against cell death caused by oxidizing stress” value was “+++” and the “Protection of human neuroblastomas from cell death caused by H2O2 (in words)” value is given as “capable of protecting human neuroblastomas from the cell death”. Also, in the assay on Sprague-Dawley rats [3], the “Effect on mechanical allodynia and mechanical hyperalgesia” value was “eliminates the symptoms”. In addition, the “Effect on thermal allodynia to cold” value with Sprague-Dawley rats [4] is “eliminates the symptoms”. The “Anti-nociceptive effect in healthy animals” value with Sprague-Dawley rats [5] was “does not cause any anti-nociceptive effect”.
As to `C=CCO[C@H]1CC[C@]2(C)C3CC[C@@]4(C)C(CC[C@@H]4C(C)=O)C3CC[C@H]2C1` (some centres unmarked) [BR297], in assay [1], the “Effect on cell proliferation (neural proliferative effect)” value is on record as “−” and the “Effect on the proliferation of human neuroblastomas (in words)” value is reported as “no effect”. Moreover, in assay [2], the “Neuroprotective effect against cell death caused by oxidizing stress” value was “++” and the “Protection of human neuroblastomas from cell death caused by H2O2 (in words)” value was “capable of protecting human neuroblastomas from the cell death”. Moreover, in the assay with Sprague-Dawley rats [3], the “Effect on mechanical allodynia and mechanical hyperalgesia” value was “eliminates the symptoms”. Moreover, the “Effect on thermal allodynia to cold” value in the assay on Sprague-Dawley rats [4] was “eliminates the symptoms”. Further, the “Anti-nociceptive effect in healthy animals” value in the assay with Sprague-Dawley rats [5] is “does not cause any anti-nociceptive effect”.
